Experimental data published in patent US20250017252A1, “Fatty acids for boostering ketogenic diet” (N.V. Nutricia, priority 2022, published 2025).
“Also recorded” adds a separate entry of the source.

Key:
Format in all cases: cell-based
[1] = tested on: mouse liver cells (Hepa1-6 cell line); test: Ketone (β-hydroxybutyrate) production in mouse liver cells; conditions: for Effect of combining with OA on βHb production vs sum of individual effects: 1 μM to 10 μM + 100 μM OA; for βHb production when combined with oleic acid vs OA alone: 1 μM to 10 μM test nutrient + 100 μM OA; for βHb production when combined with fatty acid blend (K-one) vs blend alone: 1 μM to 10 μM test nutrient + 100 μM fatty acid blend; for βHb production, provided alone: test nutrient alone at 1 μM, 5 μM and 10 μM, no OA or fat blend, 6 hours; for Effect of combining with fatty acid blend on βHb production vs sum of individual effects: with 100 μM K-one fatty acid blend; for Ketone production in the absence of a ketogenic fat blend: 5 μM each, alone or in combination
Procedure: An assay to measure ketone production in mouse liver cells (Hepa1-6 cell line) was used wherein cells were first grown to a monolayer (growth phase), then exposed to starvation to deplete cellular lipid stores and subsequently brought into a ketogenic phase wherein cells were cultured in presence of oleic acid or a ketogenic diet fat blend with or without the presence of one of C2 fatty acid, C4 fatty acid, C6 fatty acid, citric acid and nicotinamide riboside. The ketone body production was subsequently determined by measurement of beta-hydroxybutyrate in the cell culture medium according to the details set out below:
Starvation phase: At the end of the growth phase the cells formed a monolayer. The medium was exchanged for DMEM containing 1 mM glucose and antibiotics (1% penicillin & streptomycin) but no FBS. The medium was further supplemented with L-carnitine (a required co-factor for the uptake of fatty acids into the mitochondria, where fatty acids are turned into ketones). The cells were incubated in this medium for 24 hours. During this time, the cells were vastly deprived of glucose, lipids and hormones contained in FBS, forcing them to consume and empty their lipid stores. […] Moreover, the starvation phase is thought to induce specific metabolic changes that maximize the production of ketones.
Ketogenic phase: At the end of the starvation phase, the medium was exchanged for Krebs-Henseleit buffer (KHB) supplemented with the L-carnitine and the test nutrients (table 1, single fatty acids C2, C4, C6 and citrate, nicotinamide riboside in combination with oleic acid fatty acid blend).
The fatty acid blend has a similar fatty acid composition as the one used in a ketogenic diet (K-one). The content of every fatty acid in the blend is given as the molar ratio to Oleic acid (OA), whose molar content is set to 1. Dilutions of this blend were used to determine the dose response curve in FIGS. 1B and 1D. C2 and C4 are not included in the blend.
KHB is composed of salts and bicarbonate as a chemical buffer to maintain the osmotic pressure and acidity (pH) at physiological levels. Medium and long chain fatty acids are coupled to bovine serum albumin prior to the assay to make them soluble in KHB and allow their efficient uptake by the cells. The coupling is physiological since in humans, medium and long chain fatty acids are normally coupled to albumin for transport in the blood circulation. Short chain fatty acids (C2, C4) were not coupled to albumin in the assay as they are water-soluble and circulate freely in humans. The cells were incubated for 6 hours at 37° C. During this time they produce ketones from the test nutrients with little to no interference from other nutrients and secrete β-hydroxybutyrate (β) into the medium.
β-Hb measurements: At the end of the ketogenic phase, the whole medium was collected and dried by vacuum centrifugation for 20 hours at 21° C. The dry pellet was resuspended in a small volume of assay buffer to yield a 10-20-fold higher β-Hb concentration than in the medium. The samples were deproteinized using spin columns to measure the free unbound fraction of β-Hb. […] The Fluorescence was measured on a fluorescence microplate reader and is directly proportional to the β-Hb concentration in the sample within a range of 0.1 μM to 50 μM β-Hb.

[2] = tested on: NAD+ depleted mouse liver cells (Hepa1-6 cells); test: NAD+ replenishment of NAD+ depleted mouse liver cells under ketogenic diet-like conditions
Description: A ketogenic diet treatment leads to great consumption of NAD+ and other metabolically relevant NAD+ derivatives such as NADP+ creating a state of NAD+ exhaustion. Therefore, it was hypothesized that nicotinamide riboside (NR) may replenish NAD+ and thus sustains ketone production more effectively in liver cells than other NAD+ precursors including nicotinamide (NAM), nicotinic acid (NA), Niacin (defined as the combination of NA and NAM) or the amino acid tryptophan (Trp). While NA and NAM have been commonly referred to as vitamin B3, NR is a recently discovered and naturally occurring vitamin B3 member. An assay was developed to measure NAD+ replenishment of NAD+ depleted mouse liver cells (Hepa1-6 cells) by NAD+ precursors under ketogenic diet-like conditions. In this assay, mouse liver cells were starved of glucose and depleted of NAD+ through incubation in a very low glucose (1 mM) medium free of vitamin B3, tryptophan (Trp) and FBS and supplemented with 10 nM of an NAD+ depleting drug called FK866. Thereafter, the cells were fed with NR or NAM or Niacin (combination of NAM and NA in a 1:1 molar ratio) or Trp to replenish NAD+. At the end of the supplementation phase, the cells were scraped and extracted using the NAD+ extraction buffer of the EnzyChrom™ NAD/NADH Assay Kit from BioAssay Systems. The NAD+ content of the cells was determined with the same kit following the manufacturer's manual. The NAD+ measurement is based on a lactate dehydrogenase reaction, in which NAD+ is reduced to NADH, which in turn reduces a formazan (MTT) reagent. The intensity of the reduced product colour, measured at 565 nm, is proportional to the NAD+ concentration in the sample. This assay is highly specific for NAD+ and has minimal interference (<1%) by NADP+ or NADPH.

[3] = tested on: NAD+ depleted mouse liver cells; test: Ketone production of NAD+ depleted liver cells after NR replenishment; conditions: NR 10 μM, 150 μM and 1000 μM
Procedure: To measure the impact of replenishing NAD+ in liver cells with NR on ketone production, mouse liver cells were nutrient-deprived in medium containing low (1 mM) glucose, no fetal bovine serum, and no NAD+ precursors in the form of vitamin B3 (Niacin, NA, NAM) or Trp, but supplemented with L-carnitine.
Concomitantly the cells were treated with FK866. These conditions created ketogenic diet like nutrient conditions and depleted the cells of NAD+ After 18 hours of incubation, FK866 was removed from the medium and a concentration range of NR was added for the replenishment of NAD+. After 24 hours, the cells were switched to Krebs-Henseleit buffer (KHB) containing L-carnitine and a concentration range (1 μM to 100 μM) of oleic acid, a long chain fatty acid, for 6 hours to induce and measure the production and secretion of b-hydroxybutyrate (βHB) into the medium.

CC(=O)O [C2, ethanoic acid]
Effect of combining with OA on βHb production vs sum of individual effects [1]: more than additive | βHb production when combined with oleic acid vs OA alone [1]: more βHb than 100 μM OA alone | βHb production when combined with fatty acid blend (K-one) vs blend alone [1]: slightly greater production of βHb | βHb production, provided alone [1]: virtually no bHB; also recorded: no βHb | Effect of combining with fatty acid blend on βHb production vs sum of individual effects [1]: more than additive

CCCC(=O)O [C4, butyric acid]
Effect of combining with OA on βHb production vs sum of individual effects [1]: more than additive | βHb production when combined with oleic acid vs OA alone [1]: more βHb than providing 100 μM OA alone | βHb production when combined with fatty acid blend (K-one) vs blend alone [1]: more βHb than providing the 100 μM fatty acid blend alone | Ketone production in the absence of a ketogenic fat blend [1]: hardly any ketones | Production of ketones from fatty acid blend concentration range ([1]; fixed 10 μM C4 + 1 μM to 100 μM fatty acid blend vs blend without C4): increasingly enhanced the production of ketones | βHb production, provided alone [1]: hardly yielded any βHb; also recorded: no βHb | Effect of combining with fatty acid blend on βHb production vs sum of individual effects [1]: more than additive

CCCCCC(=O)O [C6, caproic acid]
βHb production when combined with oleic acid vs OA alone [1]: potentiates the production of ketones | βHb production when combined with fatty acid blend (K-one) vs blend alone [1]: potentiates the production of ketones | Ketone production in the absence of a ketogenic fat blend [1]: hardly any ketones | Concentration above which the fatty acid starts to be turned into βHb (substrate) ([1]; dose-response curve 1 μM to 100 μM, alone): above 10 μM | Effect of combining with fatty acid blend on βHb production vs sum of individual effects [1]: more than additive

O=C(/C=C/c1cccnc1)NCCCCC1CCN(C(=O)c2ccccc2)CC1 [FK866, reference compound]
Depletion of NAD+ relative to baseline NAD+ content of untreated liver cells ([2]; 10 nM FK866): ~70%

NC(=O)c1ccc[n+]([C@@H]2O[C@H](CO)[C@@H](O)[C@H]2O)c1 [NR, nicotinamide riboside]
NAD+ content replenishment ([2]; NAD+ depleted cells, within 24 hours of treatment): dose-dependently replenishes NAD+ content to and above this baseline | Increase of NAD+ content vs equimolar NAM or Niacin ([2]; high concentrations of 1 mM): significantly greater extent than equimolar amounts of NAM or Niacin | Increase of NAD+ content vs equimolar Niacin ([2]; lower concentrations below 150 μM): greater extent than equimolar amounts of Niacin | Top-level production of ketones ([3]; NAD+ depleted cells, oleic acid 1 μM to 100 μM, 6 hours): increased the top-level production of ketones | NAD+ content ([3]; ketogenic diet like nutrient conditions): increased

CCCCCCCC/C=C\CCCCCCCC(=O)O [OA, oleic acid, reference compound]
Concentration at which top-level production of ketones is achieved ([1]; dose-response curve, substrate alone): 100 µM

O=C(O)CC(O)(CC(=O)O)C(=O)O [citrate, citric acid]
Increase of ketone production from the fat blend ([1]; citrate 200 μM to 1000 μM + 100 μM K-one fat blend): 10-20% | Ketone production, citrate alone ([1]; citrate alone, no fat blend): no ketones | Effect of combining with fatty acid blend on βHb production vs sum of individual effects [1]: clearly greater than the sum
